In paper PMC4279401 (Oncotarget, 2014):
“Also recorded” adds a separate entry of the source. Read-outs that look alike come from different tables or passages of the source.

Assays:
[1] = test system: MDA-MB157 and HCC70 as well as A549 and NB4; conditions: in words
MCF-7 = assay: Cell proliferation, MTT assay; type: cell-based; conditions: Homo sapiens, read-out: Anti-proliferative activity EC50
HCC70 = assay: Cell proliferation, MTT assay; type: cell-based; conditions: Homo sapiens, read-out: Anti-proliferative activity EC50
MDA-MB231 cells [2] = assay: ALDEFLUOR assay; type: cell-based, Human; conditions: in words
Procedure: (§1) 5 × 10^4 cells/well were incubated with compounds for 14 days. The ALDH activity of cells was determined by using the ALDEFLUOR assay kit (StemCell Technologies) according to the manufacturer's instructions. Combinations of fluorochrome-conjugated monoclonal antibodies against human CD44-FITC and CD24-PE were obtained from BD Biosciences. Primary antibodies or the respective isotype controls (BD Biosciences) were added to the cell suspension, according to the manufacturer's recommendation, and incubated at 4°C for 20 min. Dead cells were eliminated using propidium iodide (Sigma). The labelled cells were analyzed on a FACS Calibur (BD Biosciences/Applied Biosystems).

NB4 = assay: Cell proliferation, MTT assay; type: cell-based; conditions: Homo sapiens, read-out: Anti-proliferative activity EC50
MDA-MB231 cells [3] = assay: Microarray gene set enrichment analysis; type: cell-based, Human; conditions: 1 at 5 μM, 2 at 10 μM, in words
Procedure: 10^5 cells/well were incubated with compounds for 14 days. Cells were lysed immediately in TRIzol® Reagent, frozen in liquid nitrogen, and shipped to Asuragen, Inc. (Austin, TX) for microarray experiments. RNA was isolated, amplified, and hybridized to Illumina Human HT-12 v4 arrays according to the manufacturer's protocol. Microarray data were log2 transformed and then normalized to have the same median for all the arrays. Moderate t-statistics were used to test if genes were differentially expressed between the groups of interest. Benjamini and Hochberg method was used to correct for multiple comparisons. R and Bioconductor packages were used for all the statistical analyses (http://cran.us.r-project.org/, http://www.bioconductor.org/). Gene set enrichment analysis was performed using GSEA software from Broad Institute (Boston, MA).

[4] = in words; cited from earlier work
H3K79 methylation [5] = assay: Western blot of histone methylation in MCF-7; type: cell-based, Human; conditions: MCF-7, Western blot, in words
Procedure: (§2) Human cell lines BT549, MDA-MB231, MCF-7, MDA-MB157, HCC70, A549 and NB4 were obtained from the American Type Culture Collection (ATCC) and cultured using ATCC recommended conditions. Primary antibodies against H3K79me2, H3K27me3, H3K4me3, H3K36me2, H4K20me3, H3K9me-pan were purchased from Cell Signaling (Danvers, MA). siRNA experiments were performed by transfecting MDA-MB-231 cells with X-tremeGENE Transfection Reagent (Roche) and 10 nM siRNA (Invitrogen), according to the manufacturer's protocol.
(§3) 10^6 cells/well were incubated with increasing concentrations of a compound for 5 days and histones extracted with the EpiQuik™ Total Histone Extraction Kit (Epigentek) according to the manufacturer's protocol. Equal amounts of histones (2μg) were separated on SDS-PAGE and transferred to PVDF membranes. The blots were probed with primary antibodies, followed by anti-rabbit IgG (Thermo Scientific) secondary antibodies. For western blot analysis of MDA-MB231 xenograft tumors, tumors were harvested and frozen in liquid nitrogen. Histones were extracted and analyzed by immunoblotting as described above.

MDA-MB231 [6] = assay: Matrigel invasion assay; type: cell-based, Human
Procedure: (§4) 5 × 10^4 cells/well were incubated with compounds for 14 days. For transwell migration assays, 5× 10^4 cells were plated in the top chamber with the non-coated membrane (24-well insert; pore size, […]; BD Biosciences). For invasion assays, 5× 10^4 cells were plated in the top chamber with Matrigel-coated membrane. The cells on the apical side of each insert were then scraped off after 22 h for both assays. The wells were washed with PBS, fixed with 100% methanol and stained with DAPI. Cells that had migrated to the basal side of the membrane were visualized and counted with a Nikon Eclipse TE2000-U microscope at 10×. Pictures of three random fields were obtained and the number of cells that had migrated quantified using ImageJ analysis software.

BT549 = assay: Cell proliferation, MTT assay; type: cell-based; conditions: Homo sapiens, read-out: Anti-proliferative activity EC50
MDA-MB231 [7] = assay: Cell proliferation, MTT assay; type: cell-based; conditions: Homo sapiens, read-out: Anti-proliferative activity EC50
MDA-MB157 = assay: Cell proliferation, MTT assay; type: cell-based; conditions: Homo sapiens, read-out: Anti-proliferative activity EC50
MDA-MB231 [8] = assay: Transwell cell migration assay; type: cell-based, Human
Procedure: as §4

A549 = assay: Cell proliferation, MTT assay; type: cell-based, Human; conditions: for EC50: Homo sapiens, read-out: Anti-proliferative activity EC50
[9] = test system: five breast cancer cell lines, lung cancer A549 and non-MLL leukemia NB4 cells; assay: Cell proliferation, MTT assay, whole panel; type: cell-based; conditions: Homo sapiens, 72 h; 3-day treatment, all seven cell lines; read-out: EC50 against all of these cells
[10] = test system: MDA-MB231, BT549 and MCF-7 breast cancer cells; assay: Cell proliferation, MTT assay, DOT1L+ breast cancer cells; type: cell-based, Human; conditions: Homo sapiens, 360 h
MDA-MB231 cells [11] = assay: CD44/CD24 flow cytometry; type: cell-based, Human; conditions: MDA-MB231, FACS, in words
Procedure: as §1

H3K79 methylation [12] = assay: Western blot of histone methylation in MDA-MB231; type: cell-based, Human
Procedure: as §2, §3

## CC(C)N(CCCNC(=O)Nc1ccc(C(C)(C)C)cc1)C[C@H]1O[C@@H](n2ccc3c(N)ncnc32)[C@H](O)[C@@H]1O [Compound 1, EPZ004777]
[1]
  activity against DOT1L−/low breast or non-breast cancer cells: inactive
MCF-7; MCF7, 72 h, MCF-7, 3-day treatment
  EC50: 15 µM
MCF-7; MCF7, 360 h, MCF-7, 15-day treatment
  EC50: 0.95 µM
HCC70; 72 h, HCC70, 3-day treatment
  EC50: 20 µM
HCC70; 360 h, HCC70, 15-day treatment
  EC50: 12 µM
MDA-MB231 cells [2]
  ALDH+ cell population: considerably reduced
NB4; NB-4, 72 h, NB4, 3-day treatment
  EC50: 21 µM
NB4; NB-4, 360 h, NB4, 15-day treatment
  EC50: 22 µM
MDA-MB231 cells [3]
  genes whose expression is low in breast CSCs (GSEA): upregulation
  pro-proliferation genes in the PAM50 gene set (GSEA): downregulation
[4]
  pharmacokinetics: poor pharmacokinetics with short plasma half-lives
H3K79 methylation [5]
  effect on H3K79 methylation: significantly reduced H3K79 methylation; also recorded: considerably reduced H3K79 methylation
MDA-MB231 [6]
  inhibition of Matrigel invasion: ~25%
BT549; BT-549, 72 h, BT549, 3-day treatment
  EC50: 29 µM
BT549; BT-549, 360 h, BT549, 15-day treatment
  EC50: 0.71 µM
MDA-MB231 [7]; MDA-MB-231, 72 h, MDA-MB231, 3-day treatment
  EC50: 45 µM
MDA-MB231 [7]; MDA-MB-231, 360 h, MDA-MB231, 15-day treatment
  EC50: 0.19 µM
MDA-MB157; MDA-MB-157, 72 h, MDA-MB157, 3-day treatment
  EC50: > 50 µM
MDA-MB157; MDA-MB-157, 360 h, MDA-MB157, 15-day treatment
  EC50: 27 µM
MDA-MB231 [8]; MDA-MB231, Transwell
  inhibition of cell migration: ~ 50%
MDA-MB231 [8]; MDA-MB231, Transwell with and without Matrigel, in words
  cell migration and invasion: reduced abilities of cell migration and invasion
A549; 72 h, A549, 3-day treatment
  EC50: 19 µM
A549; 360 h, A549, 15-day treatment
  EC50: 20 µM
A549; in words
  activity against A549 cells: negligible activity
[9]
  EC50: ≥ 15 µM
[10]; 15-day treatment, MDA-MB231, BT549, MCF-7, read-out: EC50 against proliferation
  EC50: 0.19 to 1.4 µM
[10]; DOT1L+ breast cancer cells, 15-day, read-out: anti-proliferation EC50
  EC50: ≥ 0.19 µM
MDA-MB231 cells [11]
  CD44+/CD24− cell population: significantly decreased
  cell population expressing high levels of CD24: considerably more cells expressed higher levels of CD24; also recorded: increased cell population
H3K79 methylation [12]; Homo sapiens, MDA-MB-231, read-out: IC50 of H3K79 methylation inhibition
  IC50: ~0.05 µM
H3K79 methylation [12]; in words
  effect on H3K79 methylation: only inhibited H3K79 methylation
